Drawing on patent US20190031665A1, “DERIVATIVES OF PYRROLOIMIDAZOLE OR ANALOGUES THEREOF WHICH ARE USEFUL FOR THE TREATMENT OF INTER ALIA CANCER” (EMCURE PHARMACEUTICALS LIMITED, priority 2016, published 2019), this text covers IC50 and inhibition for 21 compounds.

The structures appear in SMILES notation.

Experiment [1] addresses T1, human indoleamine 2,3-dioxygenase 1 (hIDO1) (Homo sapiens, UniProt P14902).
T1 construct: His tag (N); purchased BPS Bioscience, San Diego, Calif., USA; host or cells: E. coli
Nature of the experiment: In-vitro human indoleamine 2,3-dioxygenase 1 (IDO1) enzyme assay. The format is biochemical. The following applies: for IC50: hIDO1 enzyme; for inhibition at 1 µM: hIDO1 enzyme at 1.0 μM concentration; for inhibition at 10 µM: hIDO1 enzyme at 10.0 μM concentration. The method, then:
In-vitro human indoleamine 2,3-dioxygenase 1 (IDO1) enzyme assay: In the in-vitro human indoleamine 2,3-dioxygenase 1 (hIDO1) enzyme assay for screening inhibitor compounds, hIDO1 with an N-terminal histidine tag expressed and purified from E. coli (BPS Bioscience, San Diego, Calif., USA) was used. All other materials were procured from Sigma-Aldrich, St. Louis, Mo., USA.
The assay method for monitoring the conversion of L-tryptophan to N-formylkynurenine by hlDO1 was carried out as follows. hlDO1 (50 ng) was incubated with tryptophan (80 μM) in the presence of ascorbic acid (10 mM), methylene blue (10 μM), catalase (100 μg/ml) and 0.01% Tween-20 in sodium phosphate buffer (50 mM; pH 6.5) at 37° C. for 60 min. The reaction was terminated with 200 mM piperidine (PIP) and further incubated at about 65° C. for about 20 minutes to convert N-formylkynurenine (NFK) to NFK-PIP. The reaction mixture was then incubated at room temperature for about 1 hour. The fluorescence intensity was read in a fluorescence microplate reader at an excitation wavelength of 400 nm and emission wavelength of 500 nm. Percent inhibition at each concentration of test compounds was determined by estimating the decrease in NFK-PIP. Data were analyzed using nonlinear regression to generate IC50 values using Graph Pad Prism® 6.

Experiment [2] concerns the target T2, human tryptophan 2,3-dioxygenase (hTDO) (Homo sapiens, UniProt P48775).
T2 construct: His tag (N); purchased BPS Bioscience, San Diego, Calif., USA; host or cells: E. coli
As to the kind of experiment: In-vitro human tryptophan 2,3-dioxygenase (TDO) enzyme assay. The class given is biochemical. The following applies: for inhibition at 1 µM: hTDO enzyme at 1.0 μM concentration; for inhibition at 10 µM: hTDO enzyme at 10.0 μM concentration. The method, then:
In the in-vitro human tryptophan 2,3-dioxygenase (hTDO) enzyme assay for screening inhibitor compounds, hTDO with an N-terminal histidine tag expressed and purified from E. coli (BPS Bioscience, San Diego, Calif., USA) was used. All other materials were procured from Sigma-Aldrich, St. Louis, Mo., USA.
The assay monitoring method for the conversion of L-tryptophan to N-formylkynurenine by hTDO was carried out as follows. hTDO (125 ng) was incubated in the presence of 200 μM L-tryptophan, 100 mM sodium phosphate buffer (pH 7.0), 0.01% Tween-20 and 100 μM ascorbic acid at about 37° C. for about 60 minutes. The reaction was terminated with 200 mM piperidine (PIP) and further incubated at about 65° C. for about 20 minutes to convert N-formylkynurenine (NFK) to NFK-PIP. The reaction mixture was then incubated at room temperature for about 75 minutes. The fluorescence intensity was read in a fluorescence microplate reader at an excitation wavelength of 400 nm and emission wavelength of 500 nm. Percent inhibition at each concentration of test compounds was determined by estimating the decrease in NFK-PIP. Data were analyzed using nonlinear regression to generate IC50 values using Graph Pad Prism® 6.

T1 sequence (P14902 whole entry): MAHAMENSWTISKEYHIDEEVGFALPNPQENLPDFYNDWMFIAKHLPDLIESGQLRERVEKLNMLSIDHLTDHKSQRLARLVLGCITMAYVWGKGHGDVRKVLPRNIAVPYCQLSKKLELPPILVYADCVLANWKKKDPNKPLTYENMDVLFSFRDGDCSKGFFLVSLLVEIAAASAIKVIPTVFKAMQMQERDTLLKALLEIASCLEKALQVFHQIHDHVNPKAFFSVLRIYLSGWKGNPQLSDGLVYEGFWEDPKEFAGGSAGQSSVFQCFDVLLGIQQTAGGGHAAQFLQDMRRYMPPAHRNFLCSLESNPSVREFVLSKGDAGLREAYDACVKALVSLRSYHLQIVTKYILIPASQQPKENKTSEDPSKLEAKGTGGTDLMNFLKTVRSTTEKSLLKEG
T2 sequence (P48775 whole entry): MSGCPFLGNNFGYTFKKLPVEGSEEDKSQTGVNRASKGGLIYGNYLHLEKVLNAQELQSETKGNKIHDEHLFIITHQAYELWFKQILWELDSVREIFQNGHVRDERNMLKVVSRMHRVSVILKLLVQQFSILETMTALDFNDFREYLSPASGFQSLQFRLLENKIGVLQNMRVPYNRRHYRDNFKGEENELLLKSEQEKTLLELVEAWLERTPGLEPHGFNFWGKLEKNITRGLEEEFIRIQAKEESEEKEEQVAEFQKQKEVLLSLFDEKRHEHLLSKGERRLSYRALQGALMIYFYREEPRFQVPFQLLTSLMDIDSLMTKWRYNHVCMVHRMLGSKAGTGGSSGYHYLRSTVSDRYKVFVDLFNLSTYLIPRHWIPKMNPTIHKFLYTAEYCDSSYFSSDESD

In general, IC50 refers to the concentration at which inhibition is half-maximal. Read a low IC50 as greater potency in that assay. One may read the inhibition as the drop in the measured response relative to a control, in per cent. Read a high inhibition as a strong effect. Turning to `CC1=C(c2ccccc2)C(CC(=O)c2cccc(Cl)c2)n2cncc21` (centres unmarked) [Example 17, 1-(3-Chloro-phenyl)-2-(7-methyl-6-phenyl-5H-pyrrolo[1,2-c]imidazol-5-yl)-ethanone], in experiment [1], the half-maximal inhibitory concentration (IC50) is under 0.5 µM, the inhibition at 1 µM was at least 50% and the inhibition at 10 µM was at least 50%. Further, in experiment [2], the inhibition at 1 µM was at least 50% and the inhibition at 10 µM was at least 50%.
In experiment [1], `COC(=O)c1ccc(C(=O)CC2C(c3ccccc3)=C(C)c3cncn32)cc1` (centres unmarked) [Example 18, 4-[2-(7-Methyl-6-phenyl-5H-pyrrolo[1,2-c]imidazol-5-yl)-acetyl]-benzoic acid methyl ester] came in with an IC50 of under 0.5 µM, an inhibition at 1 µM of at least 50% and an inhibition at 10 µM of at least 50%. Besides, in experiment [2], the inhibition at 1 µM is at least 50% and the inhibition at 10 µM was at least 50%.
`CC1=C(c2ccccc2)C(CC(O)c2cccc(Cl)c2)n2cncc21` (centres unmarked) [Example 19, 1-(3-Chloro-phenyl)-2-(7-methyl-6-phenyl-5H-pyrrolo[1,2-c]imidazol-5-yl)-ethanol]: in experiment [1], the IC50 was under 0.5 µM, the inhibition at 1 µM was at least 50% and the inhibition at 10 µM is at least 50%. In experiment [2], the inhibition at 1 µM was at least 50% and the inhibition at 10 µM is at least 50%.
Take `CC1=C(c2ccccc2)C(CC(=O)c2cccc(F)c2)n2cncc21` (centres unmarked) [Example 20, 1-(3-Fluoro-phenyl)-2-(7-methyl-6-phenyl-5H-pyrrolo[1,2-c]imidazol-5-yl)-ethanone]: in experiment [1], the IC50 is over 0.5 µM, the inhibition at 1 µM is at least 50% and the inhibition at 10 µM was at least 50%. Moreover, in experiment [2], the inhibition at 1 µM is at least 50% and the inhibition at 10 µM is at least 50%.
Turning to `CCOC(=O)CC1C(c2ccccc2)=C(C)c2cncn21` (centres unmarked) [Example 22], the inhibition at 1 µM in experiment [1] was at most 50%. The inhibition at 10 µM in experiment [1] and in experiment [2] was at least 50% in each case.
With `COC(=O)c1cccc(C(=O)CC2C(c3ccccc3)=C(C)c3cncn32)c1` (centres unmarked) [Example 23, 3-[2-(7-Methyl-6-phenyl-5H-pyrrolo[1,2-c]imidazol-5-yl)-acetyl]-benzoic acid methyl ester], in experiment [1], the inhibition at 1 µM is at most 50% and the inhibition at 10 µM is at least 50%. For the same compound, in experiment [2], the inhibition at 1 µM is at least 50% and the inhibition at 10 µM is at least 50%.
For the compound `CC1=C(c2ccccc2)C(CC(=O)c2ccc(C(=O)O)cc2)n2cncc21` (centres unmarked) [Example 24, 4-[2-(7-Methyl-6-phenyl-5H-pyrrolo[1,2-c]imidazol-5-yl)-acetyl]-benzoic acid], the values for the inhibition at 1 µM in experiment [1] and in experiment [2] were at most 50% and at least 50%, respectively. Besides, the inhibition at 10 µM in experiment [1] and in experiment [2] was at least 50% each time.
As to `CC1=C(c2ccccc2)C(CC(=O)c2ccc3ccccc3c2)n2cncc21` (centres unmarked) [Example 25, 2-(7-Methyl-6-phenyl-5H-pyrrolo[1,2-c]imidazol-5-yl)-1-naphthalen-2-yl-ethanone], in experiment [1], the IC50 is under 0.5 µM, the inhibition at 1 µM was at least 50% and the inhibition at 10 µM was at least 50%. In experiment [2], this compound returned an inhibition at 1 µM of at least 50% and an inhibition at 10 µM of at least 50%.
In experiment [1], `CC1=C(c2ccccc2)C(CC(=O)C2CC2)n2cncc21` (centres unmarked) [Example 26, 1-Cyclopropyl-2-(7-methyl-6-phenyl-5H-pyrrolo[1,2-c]imidazol-5-yl)-ethanone] came in with an inhibition at 1 µM of at most 50% and an inhibition at 10 µM of at least 50%. In experiment [2], this compound gave an inhibition at 1 µM of at least 50% and an inhibition at 10 µM of at least 50%.
`CC1=C(c2ccccc2)C(CC(=O)c2ccc(C)cc2)n2cncc21` (centres unmarked) [Example 27, 2-(7-Methyl-6-phenyl-5H-pyrrolo[1,2-c]imidazol-5-yl)-1-p-tolyl-ethanone]: in experiment [1], the inhibition at 1 µM was at most 50% and the inhibition at 10 µM was at least 50%. In experiment [2], this compound displayed an inhibition at 1 µM of at least 50% and an inhibition at 10 µM of at least 50%.
In experiment [1], `CC1=C(c2ccccc2)C(CC(=O)c2ccc3c(c2)OCO3)n2cncc21` (centres unmarked) [Example 28, 1-Benzo[1,3]dioxol-5-yl-2-(7-methyl-6-phenyl-5H-pyrrolo[1,2-c]imidazol-5-yl)-ethanone] came in with a half-inhibitory concentration (IC50) of under 0.5 µM, an inhibition at 1 µM of at least 50% and an inhibition at 10 µM of at least 50%. For the same compound, in experiment [2], the inhibition at 1 µM was at least 50% and the inhibition at 10 µM was at least 50%.
On to `CC1=C(c2ccccc2)C(CC(=O)c2cccc(C(F)(F)F)c2)n2cncc21` (centres unmarked) [Example 29, 2-(7-Methyl-6-phenyl-5H-pyrrolo[1,2-c]imidazol-5-yl)-1-(3-trifluoromethyl-phenyl)-ethanone], for which, in experiment [1], the IC50 is under 0.5 µM, the inhibition at 1 µM was at least 50% and the inhibition at 10 µM was at least 50%. In experiment [2], this compound showed an inhibition at 1 µM of at least 50% and an inhibition at 10 µM of at least 50%.
In experiment [1], `COc1ccccc1C(=O)CC1C(c2ccccc2)=C(C)c2cncn21` (centres unmarked) [Example 32, 1-(2-methoxyphenyl)-2-(7-methyl-6-phenyl-5H-pyrrolo[1,2-c]imidazol-5-yl)ethan-1-one] returned an inhibition at 1 µM of at most 50% and an inhibition at 10 µM of at most 50%. In addition, the inhibition at 10 µM in experiment [2] is at least 50%.
In experiment [1], `COc1cccc(C(=O)CC2C(c3ccccc3)=C(C)c3cncn32)c1` (centres unmarked) [Example 33, 1-(3-Methoxy-phenyl)-2-(7-methyl-6-phenyl-5H-pyrrolo[1,2-c]imidazol-5-yl)-ethanone] came in with an inhibition at 1 µM of at most 50% and an inhibition at 10 µM of at least 50%. The inhibition at 10 µM in experiment [2] is at least 50%.
In experiment [1], `CC1=C(c2ccccc2)C(CC(=O)c2ccc(F)cc2)n2cncc21` (centres unmarked) [Example 34, 1-(4-fluorophenyl)-2-(7-methyl-6-phenyl-5H-pyrrolo[1,2-c]imidazol-5-yl)ethan-1-one] showed an inhibition at 1 µM of at least 50% and an inhibition at 10 µM of at least 50%. In experiment [2], this compound yielded an inhibition at 1 µM of at least 50% and an inhibition at 10 µM of at least 50%.
For the compound `CC1=C(c2ccccc2)C(CC(O)c2ccc(F)cc2)n2cncc21` (centres unmarked) [Example 35, 1-(4-fluorophenyl)-2-(7-methyl-6-phenyl-5H-pyrrolo[1,2-c]imidazol-5-yl)ethan-1-ol], the inhibition at 1 µM in experiment [1] was at most 50%; in experiment [2], at least 50%. For the same compound, the inhibition at 10 µM in experiment [1] was at least 50%.
For `CC1=C(c2ccccc2)C(CC(=O)c2cc(F)ccc2F)n2cncc21` (centres unmarked) [Example 36, 1-(2,5-difluorophenyl)-2-(7-methyl-6-phenyl-5H-pyrrolo[1,2-c]imidazol-5-yl)ethan-1-one], in experiment [1], the inhibition at 1 µM was at least 50% and the inhibition at 10 µM is at least 50%. For the same compound, in experiment [2], the inhibition at 1 µM was at least 50% and the inhibition at 10 µM was at least 50%.
As to `COc1ccc(C(=O)CC2C(c3ccccc3)=C(C)c3cncn32)cc1` (centres unmarked) [Example 37, 1-(4-methoxyphenyl)-2-(7-methyl-6-phenyl-5H-pyrrolo[1,2-c]imidazol-5-yl)ethan-1-one], in experiment [1], the IC50 is under 0.5 µM, the inhibition at 1 µM was at least 50% and the inhibition at 10 µM is at least 50%. In experiment [2], the inhibition at 1 µM is at least 50%.
Regarding `CC1=C(c2ccccc2)C(CC(=O)c2ccc(Cl)cc2)n2cncc21` (centres unmarked) [Example 38, 1-(4-chlorophenyl)-2-(7-methyl-6-phenyl-5H-pyrrolo[1,2-c]imidazol-5-yl)ethan-1-one], in experiment [1], the IC50 is under 0.5 µM, the inhibition at 1 µM was at least 50% and the inhibition at 10 µM was at least 50%. This compound displayed an inhibition at 1 µM in experiment [2] of at least 50%.
On to `CC1=C(c2ccccc2)C(CC(=O)c2ccc(F)c(Cl)c2)n2cncc21` (centres unmarked) [Example 39, 1-(3-chloro-4-fluorophenyl)-2-(7-methyl-6-phenyl-5H-pyrrolo[1,2-c]imidazol-5-yl)ethan-1-one], for which, in experiment [1], the IC50 was under 0.5 µM, the inhibition at 1 µM was at least 50% and the inhibition at 10 µM is at least 50%. The inhibition at 1 µM in experiment [2] was at least 50%.
In experiment [1], `CC1=C(c2ccccc2)C(CC(=O)c2cccc3ccccc23)n2cncc21` (centres unmarked) [Example 40, 2-(7-methyl-6-phenyl-5H-pyrrolo[1,2-c]imidazol-5-yl)-1-(naphthalen-1-yl)ethan-1-one] registered an inhibition at 1 µM of at least 50% and an inhibition at 10 µM of at least 50%. Moreover, in experiment [2], the inhibition at 1 µM is at least 50%.
